Results published in patent US5859026A, “Quinoline carboxylic acid” (priority 1995, dated 1999).
Converted amounts (≈) assume the structure as drawn.

Assays:
E. coli NIHJ JC-2 = assay: Antibacterial activity (MIC), standard strain; format: cell-based; conditions: Escherichia coli, NIHJJC2; standard strain E. coli NIHJ JC-2, Gram -, 10^6 viable cells per ml; read-out: minimum inhibitory concentration (MIC)
Description: (§1) 1. Antibacterial spectrum against standard strains and clinically isolated strains

K. pneumoniae PCI-602 = assay: Antibacterial activity (MIC), standard strain; format: cell-based; conditions: Klebsiella pneumoniae, PCI602; standard strain K. pneumoniae PCI-602, Gram -, 10^6 viable cells per ml; read-out: minimum inhibitory concentration (MIC)
Description: as §1

S. aureus FDA 209P JC-1 = assay: Antibacterial activity (MIC), standard strain; format: cell-based; conditions: Staphylococcus aureus, FDA209P; standard strain S. aureus FDA 209P JC-1, Gram +, 10^6 viable cells per ml; read-out: minimum inhibitory concentration (MIC)
Description: as §1

S. marcescens IAM 1184 = assay: Antibacterial activity (MIC), standard strain; format: cell-based; conditions: Serratia marcescens, IAM1184; standard strain S. marcescens IAM 1184, Gram -, 10^6 viable cells per ml; read-out: minimum inhibitory concentration (MIC)
Description: as §1

E. colacae 963 = assay: Antibacterial activity (MIC), standard strain; format: cell-based; conditions: Enterobacter cloacae; standard strain E. colacae 963, Gram -, 10^6 viable cells per ml; read-out: minimum inhibitory concentration (MIC)
Protocol: as §1
Antibacterial activities (minimum inhibitory concentration: MIC) were determined according to the standard method of the Japan Society of Chemotherapy (Chemotherapy (Tokyo), 29 (1), 76, 1981) by using standard strains and strains isolated from patients of infectious disease (clinically isolated strains) and applying 10^6 viable cells per ml. […].

A. calcoaceticus HNR904 = assay: Antibacterial activity (MIC), clinically isolated strain; format: cell-based; conditions: Acinetobacter calcoaceticus; clinical isolate A. calcoaceticus HNR904, Gram -, 10^6 viable cells per ml; read-out: minimum inhibitory concentration (MIC)
Description: as §1

A. calcoaceticus HNR916 = assay: as above; format: cell-based; conditions: Acinetobacter calcoaceticus; clinical isolate A. calcoaceticus HNR916, Gram -, 10^6 viable cells per ml; read-out: minimum inhibitory concentration (MIC)
Description: as §1

A. calcoaceticus HNR939 = assay: as above; format: cell-based; conditions: Acinetobacter calcoaceticus; clinical isolate A. calcoaceticus HNR939, Gram -, 10^6 viable cells per ml; read-out: minimum inhibitory concentration (MIC)
Description: as §1

E. cloacae HNR1939 = assay: as above; format: cell-based; conditions: Enterobacter cloacae; clinical isolate E. cloacae HNR1939, Gram -, 10^6 viable cells per ml; read-out: minimum inhibitory concentration (MIC)
Description: as §1

E. cloacae HNR1941 = assay: as above; format: cell-based; conditions: Enterobacter cloacae; clinical isolate E. cloacae HNR1941, Gram -, 10^6 viable cells per ml; read-out: minimum inhibitory concentration (MIC)
Description: as §1

E. cloacae HNR1946 = assay: as above; format: cell-based; conditions: Enterobacter cloacae; clinical isolate E. cloacae HNR1946, Gram -, 10^6 viable cells per ml; read-out: minimum inhibitory concentration (MIC)
Description: as §1

E. faecalis HPC948 = assay: as above; format: cell-based; conditions: Enterococcus faecalis; clinical isolate E. faecalis HPC948, Gram +, 10^6 viable cells per ml; read-out: minimum inhibitory concentration (MIC)
Description: as §1

E. faecalis HPC975 = assay: as above; format: cell-based; conditions: Enterococcus faecalis; clinical isolate E. faecalis HPC975, Gram +, 10^6 viable cells per ml; read-out: minimum inhibitory concentration (MIC)
Description: as §1

E. faecalis HPC984 = assay: as above; format: cell-based; conditions: Enterococcus faecalis; clinical isolate E. faecalis HPC984, Gram +, 10^6 viable cells per ml; read-out: minimum inhibitory concentration (MIC)
Description: as §1

K. pneumoniae HNR828 = assay: as above; format: cell-based; conditions: Klebsiella pneumoniae; clinical isolate K. pneumoniae HNR828, Gram -, 10^6 viable cells per ml; read-out: minimum inhibitory concentration (MIC)
Description: as §1

K. pneumoniae HNR858 = assay: as above; format: cell-based; conditions: Klebsiella pneumoniae; clinical isolate K. pneumoniae HNR858, Gram -, 10^6 viable cells per ml; read-out: minimum inhibitory concentration (MIC)
Description: as §1

K. pneumoniae HNR869 = assay: as above; format: cell-based; conditions: Klebsiella pneumoniae; clinical isolate K. pneumoniae HNR869, Gram -, 10^6 viable cells per ml; read-out: minimum inhibitory concentration (MIC)
Description: as §1

S. aureus HPC308 = assay: as above; format: cell-based; conditions: Staphylococcus aureus; clinical isolate S. aureus HPC308, Gram +, 10^6 viable cells per ml; read-out: minimum inhibitory concentration (MIC)
Description: as §1

S. aureus HPC527 = assay: as above; format: cell-based; conditions: Staphylococcus aureus; clinical isolate S. aureus HPC527, Gram +, 10^6 viable cells per ml; read-out: minimum inhibitory concentration (MIC)
Description: as §1

S. aureusHPC292 = assay: as above; format: cell-based; conditions: Staphylococcus aureus, read-out: minimum inhibitory concentration (MIC)
Description: as §1

S. marcescens HNR1544 = assay: as above; format: cell-based; conditions: Serratia marcescens; clinical isolate S. marcescens HNR1544, Gram -, 10^6 viable cells per ml; read-out: minimum inhibitory concentration (MIC)
Description: as §1

S. marcescens HNR1767 = assay: as above; format: cell-based; conditions: Serratia marcescens; clinical isolate S. marcescens HNR1767, Gram -, 10^6 viable cells per ml; read-out: minimum inhibitory concentration (MIC)
Description: as §1

S. marcescens HNR1792 = assay: as above; format: cell-based; conditions: Serratia marcescens; clinical isolate S. marcescens HNR1792, Gram -, 10^6 viable cells per ml; read-out: minimum inhibitory concentration (MIC)
Description: as §1

male ICR mice = assay: Induction of convulsions, intraperitoneal (i.p.) administration; format: in vivo, mouse; conditions: 100 mg/kg i.p., 30 minutes after oral fenbufen 100 mg/kg
Description: 4. The induction of convulsions
1) Intraperitoneal (i.p.) administration

Question: Which results are given for `Cc1c(N2CCNCC2)c(F)c(N)c2c(=O)c(C(=O)O)cn(C3CC3)c12` [Reference Compound B, 5-amino-1-cyclopropyl-6-fluoro-1,4-dihydro-8-methyl-4-oxo-7-piperazinylquinoline-3-carboxylic acid, reference compound]?
Answer: MIC (E. coli NIHJ JC-2): 0.05 µg/mL (≈ 0.139 µM); MIC (K. pneumoniae PCI-602): 0.006 µg/mL (≈ 0.0166 µM); MIC (S. aureus FDA 209P JC-1): 0.1 µg/mL (≈ 0.277 µM); MIC (S. marcescens IAM 1184): 0.2 µg/mL (≈ 0.555 µM); MIC (E. colacae 963): 0.1 µg/mL (≈ 0.277 µM); MIC (A. calcoaceticus HNR904): 50 µg/mL (≈ 139 µM); MIC (A. calcoaceticus HNR916): 0.1 µg/mL (≈ 0.277 µM); MIC (A. calcoaceticus HNR939): 3.13 µg/mL (≈ 8.69 µM); MIC (E. cloacae HNR1939): 0.78 µg/mL (≈ 2.16 µM); MIC (E. cloacae HNR1941): 25 µg/mL (≈ 69.4 µM); MIC (E. cloacae HNR1946): 0.78 µg/mL (≈ 2.16 µM); MIC (E. faecalis HPC948): 6.25 µg/mL (≈ 17.3 µM); MIC (E. faecalis HPC975): 12.5 µg/mL (≈ 34.7 µM); MIC (E. faecalis HPC984): 0.39 µg/mL (≈ 1.08 µM); MIC (K. pneumoniae HNR828): 12.5 µg/mL (≈ 34.7 µM); MIC (K. pneumoniae HNR858): 0.78 µg/mL (≈ 2.16 µM); MIC (K. pneumoniae HNR869): 6.25 µg/mL (≈ 17.3 µM); MIC (S. aureus HPC308): 6.25 µg/mL (≈ 17.3 µM); MIC (S. aureus HPC527): 0.1 µg/mL (≈ 0.277 µM); MIC (S. aureusHPC292): 25 µg/mL (≈ 69.4 µM); MIC (S. marcescens HNR1544): 0.1 µg/mL (≈ 0.277 µM); MIC (S. marcescens HNR1767): 50 µg/mL (≈ 139 µM); MIC (S. marcescens HNR1792): 6.25 µg/mL (≈ 17.3 µM); Induction of convulsions, i.p. (in words) (male ICR mice): inducing actions of convulsions were not noticeable; sedative symptoms considered as precursory symptoms of convulsions, i.p. (male ICR mice): All of the animals exhibited sedative symptoms; Induction of convulsion, i.p. (number of mice with convulsions) (male ICR mice; animals with convulsions/animals tested): 0/6; sedative symptoms considered as precursory symptoms of convulsions, i.p. (male ICR mice; listed as reference compound B): all of the animals exhibited sedative symptoms
